The values below come from patent US8877742B2, “Compounds” (GlaxoSmithKline Intellectual Property Limited, priority 2011, dated 2014).

The target of the experiment is T1, NOX2 in differentiated HL60 cells (Homo sapiens, UniProt P04839).
T1 construct: Differentiation of HL-60 cells to granulocytes increases NOX2 expression; endogenous in cells; host or cells: HL60 cells differentiated into neutrophil-like cells with 1.3% DMSO
T1 sequence (P04839 2-570 limits assumed): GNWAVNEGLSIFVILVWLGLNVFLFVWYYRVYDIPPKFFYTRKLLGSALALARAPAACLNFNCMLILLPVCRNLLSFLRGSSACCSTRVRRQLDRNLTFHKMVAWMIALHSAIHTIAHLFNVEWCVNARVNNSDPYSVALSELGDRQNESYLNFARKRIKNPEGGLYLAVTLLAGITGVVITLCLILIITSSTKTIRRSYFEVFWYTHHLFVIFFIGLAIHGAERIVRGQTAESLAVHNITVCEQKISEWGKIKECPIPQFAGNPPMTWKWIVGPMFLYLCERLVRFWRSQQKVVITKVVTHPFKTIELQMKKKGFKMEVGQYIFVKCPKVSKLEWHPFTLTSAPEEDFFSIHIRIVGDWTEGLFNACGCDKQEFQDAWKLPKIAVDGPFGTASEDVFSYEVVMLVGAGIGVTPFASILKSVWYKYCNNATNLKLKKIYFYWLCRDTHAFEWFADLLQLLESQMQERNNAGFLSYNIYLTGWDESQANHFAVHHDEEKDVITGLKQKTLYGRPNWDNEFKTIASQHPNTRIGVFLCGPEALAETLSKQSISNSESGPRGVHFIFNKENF
T1 sequence (P13498 2-195 partner limits assumed): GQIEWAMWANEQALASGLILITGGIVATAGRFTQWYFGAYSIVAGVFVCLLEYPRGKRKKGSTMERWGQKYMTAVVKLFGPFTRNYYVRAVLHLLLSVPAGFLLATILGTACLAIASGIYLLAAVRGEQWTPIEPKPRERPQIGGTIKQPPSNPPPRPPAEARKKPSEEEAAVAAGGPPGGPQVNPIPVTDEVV
In words: HL60 cell-based assays: superoxide production by NOX2 (Oxyburst Assay 1 or L012 Assay 2). The settings on record: PMA-stimulated differentiated HL60 cells; in at least one of the HL60 assays (Oxyburst fluorescence or L012 luminescence). On the procedure:
In the cell-based assay, superoxide production by NOX2 was measured in differentiated HL60 cells, a human myelomonocytic leukemia cell line, using either Oxyburst (Assay1) or L012 (Assay2). Differentiation of HL-60 cells to granulocytes increases NOX2 expression. The phorbol 12-myristate 13-acetate (PMA) was used to stimulate the production of superoxide in HL60 cells by activating protein kinase C, which then activated the NADPH oxidase (NOX) enzymes. Inhibition of NOX2 enzyme was detected by the reversal of fluorescence signal (Assay 1) or luminescence signal (Assay2). The control inhibitor used was diphenyleneiodonium chloride (DPI), a […] inhibitor capable of non-selectively inhibiting superoxide produced by NOX enzymes.
Assay 1: in this high-throughput screening assay, oxyburst green bovine serum albumin (BSA) was used to detect superoxide production in HL60 cells. Oxidation of Oxyburst green BSA by hydrogen peroxide as a result of the activation of NOX2 by PMA. Oxyburst green BSA fluorescence was measured at excitation 485 nm and emission 530 nm.
Assay 2: in this assay, a chemiluminescence probe, L-012 was used to detect superoxide production in HL60 cells. L-012 reacted with various types of reactive oxygen species generated by PMA-activated HL60 cells. Luminescence was measured using Tecan Infinite 500.
The HL60 cells were differentiated into neutrophil-like cells by adding 1.3% DMSO in the media for 3-7 days (Hua, J et al. (2000) Journal of Leukocyte Biology. 68:216-224). Iscove's Modified Dulbecco's Media (IMDM) with L-Glutamine and 25 mM HEPES buffer, Fetal Bovine Serum (FBS), Penicillin/Streptomycin, Oxyburst Green BSA, PBS, and HBSS buffer with Calcium Chloride and Magnesium Chloride were purchased from Invitrogen (Catalog #s: 12440-061, 10500-064, 15140-163, O-13291, 14190-250, and 14025-134 respectively). Phorbol 12-myristate 13-acetate (PMA), glucose, and CHAPS were purchased from Sigma (Catalog #s: 79346, D-9434, and C5070 respectively). Diphenyleneiodonium chloride (DPI) was purchased from Toronto Research Chemicals (Catalog #: D491500). L-012 was purchased from Wako Chemical (Catalog #: 120-04891). Dimethyl sulfoxide (DMSO) was purchased EMD Chemicals (VWR Catalog #: MX1456-1). Multidrop combi was purchased from Thermo Electron Corporation (Waltham, Mass., USA). Hummingbird nanoliter liquid dispenser was purchased from Genomics Solution (Ann Arbor, Mich., USA). 384 well low-volume plates and polypropylene 384 well clear plates were purchased from Greiner (Catalog #: 784076 and 781280 respectively). 96 well plate and 384 well plate black assay plates were purchased from Greiner (Catalog #: 655094 and 781098). 96 well plate for compound serial dilution was purchased from Corning (Catalog #: 9017). Acquest or Analyst fluorescence plate reader was purchased from LJL Biosystems/Molecular Devices (California, USA). Tecan Infinite 500 was purchased from Tecan (Switzerland).
HL60 cells were thawed and resuspended in Cells media. The cells were centrifuged at 1200 rpm for 5 minutes. Media was aspirated and the cells were resuspended in Cells buffer. The cells were counted and resuspended to 0.5×10^6 cells/mL.
Full inhibition controls were dispensed using 100 nL/well of 1 mM DPI in DMSO to column 18 of a 384 well plate. Compounds were dispensed using 100 nL/well. Full activity controls were dispensed using 100 nL/well of 4 uM PMA in DMSO. Oxyburst Green BSA was added to cell solution at 10 ug/mL. Using the Multidrop, 10 uL cell solution was added to the entire assay plate. The assay plate was incubated at room temperature for 100 minutes. Fluorescence reading was taken after 100 minutes at excitation 485 and emission 530 using 505 Dichroic on the Acquest or Analyst.
Serial dilution (1:3.16 fold serial dilution) of the compounds was performed in 100% DMSO in 96 well plate—Row B-H Column 1-10. Row A, Column 1-10 contained DPI serial dilution. Starting concentration was 10^−2 M (10 mM). […]

`CN1Cc2ccc(-c3cn(C)c4nccc(NS(=O)(=O)c5ccccc5)c34)cc2C1` [Example 251, N-[1-methyl-3-(2-methyl-2,3-dihydro-1H-isoindol-5-yl)-1H-pyrrolo[2,3-b]pyridin-4-yl]benzenesulfonamide]: the half-inhibitory concentration (IC50) was > 100 µM. Regarding `Cn1c(-c2cc[nH]n2)c(-c2cccc(N3CCCC3)c2)c2c(NS(=O)(=O)c3ccccc3)ccnc21` [Example 173, N-(1-methyl-2-(1H-pyrazol-3-yl)-3-(3-(pyrrolidin-1-yl)phenyl)-1H-pyrrolo[2,3-b]pyridin-4-yl)benzenesulfonamide], the half-maximal inhibitory concentration (IC50) was > 100 µM. Consider `CC(C)N1CCN(c2cncc(-c3cn(C)c4nccc(NS(=O)(=O)c5cccc(Cl)c5)c34)c2)CC1` [Example 25, 3-chloro-N-(3-(5-(4-isopropylpiperazin-1-yl)pyridin-3-yl)-1-methyl-1H-pyrrolo[2,3-b]pyridin-4-yl)benzenesulfonamide], for which the IC50 is > 100 µM. Turning to `COc1cc(-c2cn(C)c3nccc(NS(=O)(=O)c4ccccc4)c23)cc(N2CCN(C)CC2)c1` [Example 28, N-(3-(3-methoxy-5-(4-methylpiperazin-1-yl)phenyl)-1-methyl-1H-pyrrolo[2,3-b]pyridin-4-yl)benzenesulfonamide], the 50% inhibitory concentration (IC50) is > 100 µM. On to `CN1C(=O)COc2ccc(-c3cn(C)c4nccc(NS(=O)(=O)c5ccccc5)c34)cc21` [Example 39, N-(1-methyl-3-(4-methyl-3-oxo-3,4-dihydro-2H-benzo[b][1,4]oxazin-6-yl)-1H-pyrrolo[2,3-b]pyridin-4-yl)benzenesulfonamide], for which the 50% inhibitory concentration (IC50) was > 100 µM. As for `COc1cc(-c2cn(C)c3nccc(NS(=O)(=O)c4ccccc4)c23)cc(N2CCN(C(C)C)CC2)c1` [Example 29, N-(3-(3-(4-isopropylpiperazin-1-yl)-5-methoxyphenyl)-1-methyl-1H-pyrrolo[2,3-b]pyridin-4-yl)benzenesulfonamide], the figure is > 100 µM.
